From EP4759807A1, “PROTEOLYSIS TARGETING CHIMERA COMPOUND FOR DEGRADING IRAK4 AND USE THEREOF” (Shenzhen Zhongge Biological Technology Co., Ltd., priority 2023, dated 2025)
Structures can show the parent of a compound that is named as a salt. Where two headings read alike, the source gives them in different places.

Target: T1, IRAK4 (Homo sapiens, UniProt Q9NWZ3)
T1 sequence (Q9NWZ3 1-460): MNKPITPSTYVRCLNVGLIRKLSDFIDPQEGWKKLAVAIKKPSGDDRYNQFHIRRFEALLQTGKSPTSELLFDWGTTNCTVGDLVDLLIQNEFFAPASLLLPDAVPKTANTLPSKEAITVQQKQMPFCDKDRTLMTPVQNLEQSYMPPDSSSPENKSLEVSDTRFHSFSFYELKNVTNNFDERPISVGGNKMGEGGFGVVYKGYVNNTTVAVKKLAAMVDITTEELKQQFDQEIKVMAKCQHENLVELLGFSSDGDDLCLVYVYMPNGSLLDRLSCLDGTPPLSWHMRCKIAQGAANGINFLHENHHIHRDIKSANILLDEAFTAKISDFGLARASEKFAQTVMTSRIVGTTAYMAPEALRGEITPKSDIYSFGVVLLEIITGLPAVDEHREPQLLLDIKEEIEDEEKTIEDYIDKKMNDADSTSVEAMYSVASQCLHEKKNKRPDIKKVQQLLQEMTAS
Test: Hibit fluorescence detection of proteolysis (IRAK4-HiBiT in HEK293T cells)
Type: cell-based
Design: host or cells: HEK293T (ATCC)
Settings: for Dmax: HEK-293T
Protocol: Utilizing HiBiT tag technology, the HiBiT tag-containing sequence (Seq. ID. No. 1, Beijing Tsingke Biotech Co., Ltd.) was connected to the IRAK4 plasmid (Seq. ID. No. 2, Beijing Tsingke Biotech Co., Ltd.), and the plasmid was transfected into HEK293T cells (ATCC). […] The 6-well plate that was incubated overnight was taken out. After the plate was left at room temperature for 15 min, the obtained mixture was added dropwise to the 6-well plate. […] Culture was performed at 37°C and 5% CO2 for 24 h. The 384-well plate was taken out and equilibrated to room temperature. 40 µL of Nano-Glo® HiBiT Lytic Detection System (Promega N3030) was added to each well and incubated at room temperature for 15 min. […] Prism 9.3 software was used to perform fitting analysis for data, and non-linear fitting (non-liner inhibitor (Bell-shaped)) and four parameters (4 parameter) were used, and the parameters was as follows: Span1 = Plateau1−Dip [formula] Span2 = Plateau2−Dip [formula] Section1 = Span1/(1+10^(∧)((LogEC50_1−X)*nH1)) [formula] Section2 = Span2/(1+10^(∧)((X−LogEC50_2)*nH2)) [formula]
The equation was as follows: Y=Dip+Section1+Section2. • Seq. ID. No. 1 ([…]), other DNA, synthetic construct, sequence length 33; • Seq. ID. No. 2 [formula]

[1] = IRAK4-HiBiT, HEK293T cells, 24 h
[2] = IRAK4-HiBiT, HEK293T cells, 24 h, read-out: DC50

## C[C@@H]1CN(C[C@H]2CC[C@H](n3cc(-n4cc(-c5ccc6cc(C(N)=O)cnn56)nn4)c(C(F)F)n3)CC2)CCN1c1cccc2c1n(C)c(=O)n2C1CCC(=O)NC1=O (stereo partly drawn) [Example 51, 7-(1-(3-(difluoromethyl)-1-((1R,4r)-4-(((3R)-4-(1-(2,6-dioxopiperidin-3-yl)-3-methyl-2-oxo-2,3-dihydro-1H-benzo[d]imidazol-4-yl)-3-methylpiperazin-1-yl)methyl)cyclohexyl)-1H-pyrazol-4-yl)-1H-1,2,3-triazol-4-yl)pyrrolo[1,2-b]pyridazine-3-carboxamide]
  Dmax: > 80%
[1]
  DC50: < 0.5 nM

## O=C1CCC(NC(=O)c2ccc(N3CCN(C[C@H]4CC[C@H](n5cc(-n6cc(-c7cnn8ccc(N9CCOCC9)nc78)nn6)c(C(F)F)n5)CC4)CC3)cc2F)C(=O)N1 (some centres unmarked) [Example 28]
  Dmax: 60 to 70%
[1]
  DC50: > 5 nM

## Cn1c(=O)n(C2CCC(=O)NC2=O)c2cccc(N3CCC4(CCN(C[C@H]5CC[C@H](n6cc(-n7cc(-c8cnn9ccc(NCCC(C)(C)O)nc89)nn7)c(C(F)F)n6)CC5)CC4)C3)c21 (some centres unmarked) [Compound 240]
  Dmax: > 80%
[2]
  DC50: < 0.5 nM

## Cn1c(=O)n(C2CCC(=O)NC2=O)c2cccc(N3CCC4(CCN(C[C@H]5CC[C@H](n6cc(-n7cc(-c8cnn9ccc(N[C@@H]%10CCCC[C@@H]%10O)nc89)nn7)c(C(F)F)n6)CC5)CC4)C3)c21 (some centres unmarked) [Example 152]
  Dmax: > 80%
[1]
  DC50: < 0.5 nM

## Cn1c(=O)n(C2CCC(=O)NC2=O)c2cccc(N3CCC4(CCN(C[C@H]5CC[C@H](n6cc(-n7cc(-c8cnn9ccc(NCCC(C)(C)O)nc89)nn7)c(C(F)F)n6)CC5)C4)CC3)c21 (some centres unmarked) [Example 134]
  Dmax: > 80%
[1]
  DC50: < 0.5 nM

## Cn1c(=O)n(C2CCC(=O)NC2=O)c2cccc(N3CCC(CN4CCC(n5cc(-n6cc(-c7ccc8cc(C(N)=O)cnn78)nn6)c(C(F)F)n5)CC4)CC3)c21 (centres unmarked) [Example 74, 7-(1-(3-(difluoromethyl)-1-(1-((1-(1-(2,6-dioxopiperidin-3-yl)-3-methyl-2-oxo-2,3-dihydro-1H-benzo[d]imidazol-4-yl)piperidin-4-yl)methyl)piperidin-4-yl)-1H-pyrazol-4-yl)-1H-1,2,3-triazol-4-yl)pyrrolo[1,2-b]pyridazine-3-carboxamide]
IRAK4-HiBiT, HEK293T cells, 24 h, read-out: Dmax
  Dmax: 70 to 80%
[2]
  DC50: < 0.5 nM

## C[C@@H]1CN(C[C@H]2CC[C@H](n3cc(-n4cc(-c5cnn6ccc(N7CCOCC7)nc56)nn4)c(C(F)F)n3)CC2)CCN1c1cccc2c1n(C)c(=O)n2C1CCC(=O)NC1=O (stereo partly drawn) [Example 46, 3-(4-((R)-4-(((1r,4R)-4-(3-(difluoromethyl)-4-(4-(5-morpholinopyrazolo[1,5-a]pyrimidin-3-yl)-1H-1,2,3-triazol-1-yl)-1H-pyrazol-1-yl)cyclohexyl)methyl)-2-methylpiperazin-1-yl)-3-methyl-2-oxo-2,3-dihydro-1H-benzo[d]imidazol-1-yl)piperidine-2,6-dione]
  Dmax: 70 to 80%
[1]
  DC50: < 0.5 nM

## Cn1c(=O)n(C2CCC(=O)NC2=O)c2cccc(N3CCN(C4CCN(C[C@H]5CC[C@H](n6cc(-n7cc(-c8cnn9ccc(NCC%10CC%10)nc89)nn7)c(C(F)F)n6)CC5)CC4)CC3)c21 (some centres unmarked) [Example 110, 3-(4-(4-(1-(((1r,4r)-4-(4-(5-((cyclopropylmethyl)amino)pyrazolo[1,5-a]pyrimidin-3-yl)-1H-1,2,3-triazol-1-yl)-3-(difluoromethyl)-1H-pyrazol-1-ylcyclohexyl)methyl)piperidin-4-yl)piperazin-1-yl)3-methyl-2-oxo-2,3-dihydro-1H-benzo[d]imidazol-1-yl)piperidine-2,6-dione]
  Dmax: > 80%
[1]
  DC50: < 0.5 nM

## Cn1c(=O)n(C2CCC(=O)NC2=O)c2cccc(N3CCOC4(CCN(C[C@H]5CC[C@H](n6cc(-n7cc(-c8ccc9cc(C(N)=O)cnn89)nn7)c(C(F)F)n6)CC5)CC4)C3)c21 (some centres unmarked) [Example 88]
  Dmax: 70 to 80%
[1]
  DC50: < 0.5 nM

## Cn1c(=O)n(C2CCC(=O)NC2=O)c2cccc(C#CCOC3CCN(C[C@H]4CC[C@H](n5cc(-n6cc(-n7ccc8cc(C(N)=O)cnc87)nn6)c(C(F)F)n5)CC4)CC3)c21 (some centres unmarked) [Example 106, 1-{1-[3-(difluoromethyl)-1-[(1r,4r)-4-{[4-({3-[1-(2,6-dioxohexahydropyridin-3-yl)-3-methyl-2-oxobenzo[d]imidazol-4-yl]prop-2-ynyl}oxy)hexahydropyridin-1-yl]methyl}cyclohexyl]pyrazol-4-yl]-1,2,3-triazol-4-yl}pyrrolo[2,3-b]pyridine-5-carboxamide]
  Dmax: 60 to 70%
[1]
  DC50: < 0.5 nM

## Cn1c(=O)n(C2CCC(=O)NC2=O)c2cccc(NC(=O)N3CCC4(CCN(C[C@H]5CC[C@H](n6cc(-n7cc(-c8ccc9cc(C(N)=O)cnn89)nn7)c(C(F)F)n6)CC5)C4)CC3)c21 (some centres unmarked) [Example 90, 2-(((1r,4r)-4-(4-(4-(3-carbamoylpyrrolo[1,2-b]pyridazin-7-yl)-1H-1,2,3-triazol-1-yl) -3-(difluoromethyl)-1H-pyrazol-1-yl)cyclohexyl)methyl)-N-(1-(2,6-dioxopiperidin-3-yl)-3-methyl-2-oxo-2,3-dihydro-1H-benzo[d]imidazol-4-yl)-2,8-diazaspiro[4.5]decan-8-carboxamide]
  Dmax: 70 to 80%
[1]
  DC50: > 5 nM

## Cn1c(=O)n(C2CCC(=O)NC2=O)c2cccc(N3CCN(C4CCN(C[C@H]5CC[C@H](n6cc(-n7cc(-c8cnn9ccc(N%10CCC(O)CC%10)nc89)nn7)c(C(F)F)n6)CC5)CC4)CC3)c21 (some centres unmarked) [Example 138]
  Dmax: > 80%
[1]
  DC50: < 0.5 nM

## Cn1c(=O)n(C2CCC(=O)NC2=O)c2cccc(N3CCC4(CCN(C[C@H]5CC[C@H](n6cc(-n7cc(-c8cnn9cc(C#N)cnc89)nn7)c(C(F)F)n6)CC5)CC4)CC3)c21 (some centres unmarked) [Compound 199]
  Dmax: 60 to 70%
[2]
  DC50: 1 to 5 nM

## Cn1c(=O)n(C2CCC(=O)NC2=O)c2cccc(N3C4CCC3CN(C[C@H]3CC[C@H](n5cc(-n6cc(-c7cnn8ccc(N9CCOCC9)nc78)nn6)c(C(F)F)n5)CC3)C4)c21 (some centres unmarked) [Example 48, 3-(4-((1r,4r)-4-(3-(difluoromethyl)-4-(4-(5-morpholinopyrazolo[[1,5-a]pyrimidin-3-yl)-1H-1,2,3-triazol-1-yl)-1H-pyrazol-1-yl)cyclohexyl)-3,8-diazabicyclo[3.2.1]oct-8-yl)-3-methyl-2-oxo-2,3-dihydro-1H-benzo[d]imidazol-1-yl)piperidine-2,6-dione]
  Dmax: 60 to 70%
[1]
  DC50: > 5 nM

## Cn1c(=O)n(C2CCC(=O)NC2=O)c2cccc(C3CN(C4CN(C[C@H]5CC[C@H](n6cc(-n7cc(-c8ccc9cc(C(N)=O)cnn89)nn7)c(C(F)F)n6)CC5)C4)C3)c21 (some centres unmarked) [Example 83]
  Dmax: 70 to 80%
[1]
  DC50: < 0.5 nM

## O=C1CCC(N2C(=O)c3ccc(N4CC(CN5CCC(n6cc(-n7cc(-c8cnn9ccc(N%10CCOCC%10)nc89)nn7)c(C(F)F)n6)CC5)C4)cc3C2=O)C(=O)N1 (centres unmarked) [Example 78]
  Dmax: 70 to 80%
[1]
  DC50: 1 to 5 nM

## Cn1c(=O)n(C2CCC(=O)NC2=O)c2cccc(C#CCOC3CCN(C[C@H]4CC[C@H](n5cc(-n6cc(-c7cnn8ccc(N9CCOCC9)nc78)nn6)c(C(F)F)n5)CC4)CC3)c21 (some centres unmarked) [Example 7]
  Dmax: 60 to 70%
[1]
  DC50: < 0.5 nM

## CN(C[C@H]1CC[C@H](n2cc(-n3cc(-c4cnn5ccc(N6CCOCC6)nc45)nn3)c(C(F)F)n2)CC1)C1CCC2(CC1)CC(Nc1cccc3c1n(C)c(=O)n3C1CCC(=O)NC1=O)C2 (some centres unmarked) [Example 23, 3-(4-((7-((((1r,4r)-4-(3-(difluoromethyl)-4-(4-(5-morpholinopyrazolo[1,5-a]pyrimidin-3-yl)-1H-1,2,3-triazol-1-yl)-1H-pyrazol-1-yl)cyclohexyl)methyl)(methyl)amino)spiro[3.5]nonan-2-yl)amino)-3-methyl-2-oxo-2,3-dihydro-1H-benzo[d]imidazol-1-yl)piperidine-2,6-dione]
  Dmax: > 80%
[1]
  DC50: < 0.5 nM

## Cn1c(=O)n(C2CCC(=O)NC2=O)c2cccc(N3CCC(N4CCN(C[C@H]5CC[C@H](n6cc(-n7cc(-c8cnn9ccc(N%10CCC[C@H](N)C%10)nc89)nn7)c(C(F)F)n6)CC5)CC4)CC3)c21 (stereo partly drawn) [Example 150, 3-(4-(4-(1R,4R)-4-(4-(4-(5-(S)-3-aminopiperidin-1-yl)pyrazolo[1,5-a]pyrimidin-3-yl)-1H-1,2,3-triazol-1-yl)-3-(difluoromethyl)-1H-pyrazol-1-yl)cyclohexyl)methyl)piperazin-1-yl)piperidin-1-yl)-3-methyl-2-oxo-2,3-dihydro-1H-benzoimidazol-1-yl)piperidine-2,6-dione hydrochloride]
  Dmax: > 80%
[1]
  DC50: < 0.5 nM
